pKi: −log10 of the molar value.
Columns and labels:
Type in all cases: biochemical
FXa = FXa (Homo sapiens, UniProt P00742); assay: Determination of selectivity: FXa inhibition, chromogenic substrate S2765 assay; settings: fold selectivity for FXIIa over FXa
Outline: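 Human FXa (5 nM) preincubated with compound (top 500 μM, 5% DMSO) 10 min at 37 °C in 50 mM Tris, 137 mM NaCl pH 7.4, then S2765 ([…]) added; A405 kinetics over 3 h at 37 °C. IC50 from initial rates, converted to Ki via Cheng-Prusoff.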

thrombin = molecular target: T1, thrombin (Homo sapiens, UniProt P00734); assay: Determination of selectivity: thrombin inhibition, chromogenic substrate GPR assay; settings: fold selectivity for FXIIa over thrombin
T1 construct: FXa (5 nM) and thrombin (5 nM)
Outline: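 Thrombin (5 nM) preincubated with compound 10 min at 37 °C in 50 mM Tris, 137 mM NaCl, pH 7.4, 5% DMSO, then GPR substrate ([…]) added. Absorbance at 405 nm read kinetically for 3 h; IC50 from initial rates, converted to Ki via Ki=IC50/(1+[S]/Km).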

FXIIa = molecular target: T2, FXIIa (Homo sapiens, UniProt P00748); assay: Determination of Factor XIIa inhibition, chromogenic substrate S-2302 assay; settings: human FXIIa alpha
T2 sequence (P00748 373-615 limits assumed): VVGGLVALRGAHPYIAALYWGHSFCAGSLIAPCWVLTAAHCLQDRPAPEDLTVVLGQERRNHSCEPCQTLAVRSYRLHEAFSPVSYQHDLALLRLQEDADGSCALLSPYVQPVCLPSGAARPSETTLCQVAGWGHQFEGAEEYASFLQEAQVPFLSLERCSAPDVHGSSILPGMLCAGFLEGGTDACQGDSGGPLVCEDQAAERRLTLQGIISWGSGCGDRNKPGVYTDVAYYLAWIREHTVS
T2 sequence (P00748 20-372 partner limits assumed): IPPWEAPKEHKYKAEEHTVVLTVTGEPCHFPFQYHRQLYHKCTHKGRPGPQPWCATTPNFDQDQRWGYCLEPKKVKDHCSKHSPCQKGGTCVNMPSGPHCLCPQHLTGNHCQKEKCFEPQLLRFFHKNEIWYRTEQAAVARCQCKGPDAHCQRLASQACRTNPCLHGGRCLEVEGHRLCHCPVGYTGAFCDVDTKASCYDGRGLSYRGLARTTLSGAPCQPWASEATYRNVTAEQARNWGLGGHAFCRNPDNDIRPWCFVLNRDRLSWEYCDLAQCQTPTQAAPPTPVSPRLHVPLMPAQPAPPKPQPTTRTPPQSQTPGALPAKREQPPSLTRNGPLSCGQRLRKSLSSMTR
Outline: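 FXIIa (10 nM) preincubated with compound 10 min at 37° C. in 50 mM Tris, 137 mM NaCl pH 7.4, 5% DMSO, top concentration 500 μM, then S-2302 added ([…]). Absorbance at 405 nm read kinetically for 3 h; IC50 from initial rates, converted to Ki by Cheng-Prusoff.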

Chain of FXa (P00742 235-488 limits assumed): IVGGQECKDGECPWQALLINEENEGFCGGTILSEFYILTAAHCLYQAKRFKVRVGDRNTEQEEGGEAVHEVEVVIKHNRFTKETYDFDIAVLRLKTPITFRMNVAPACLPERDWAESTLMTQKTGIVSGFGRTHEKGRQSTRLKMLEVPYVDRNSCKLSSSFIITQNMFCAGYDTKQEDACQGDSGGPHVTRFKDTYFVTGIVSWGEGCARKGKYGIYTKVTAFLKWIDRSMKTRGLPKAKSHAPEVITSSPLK
Chain of FXa (P00742 41-179 partner limits assumed): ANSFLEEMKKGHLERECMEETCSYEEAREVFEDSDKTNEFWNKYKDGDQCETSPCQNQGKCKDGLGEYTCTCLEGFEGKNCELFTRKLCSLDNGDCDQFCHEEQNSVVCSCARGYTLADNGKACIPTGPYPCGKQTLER

FXa (human)/FXIIa alpha (human) (FXa)	Thrombin (human)/FXIIa alpha (human) (thrombin)	pKi (FXIIa)	Compound
∘∘	++ (fold selectivity value of 10 to 100)	< 5.70	Cn1nnc2cc(CNC(=O)[C@@H]3C[C@@H](Cc4cccc(C(F)(F)F)c4)CN3C(=O)[C@H]3C[C@@H](c4ccccc4)CN3)ccc21 [Example M05356]
∘∘	++ (fold selectivity value of 10 to 100)	5.70 to 6.70	COc1ccc(C[C@@H]2C[C@@H](C(=O)NCc3ccc4c(c3)nnn4C)N(C(=O)[C@H]3CC(c4ccc(F)cc4)CN3)C2)cc1 (stereo partly drawn) [Example M05340]
∘∘	++ (fold selectivity value of 10 to 100)	< 5.70	Cn1nnc2cc(CNC(=O)[C@@H]3C[C@@H](Cc4ccncc4)CN3C(=O)[C@@H](CCC(=O)N3CCCC3)NCC(F)F)ccc21 [Example M05269]
∘∘∘	++ (fold selectivity value of 10 to 100)	> 6.70	COc1ccc(C[C@@H]2C[C@@H](C(=O)NCc3cc4ccncc4[nH]3)N(C(=O)[C@H]3C[C@@H](c4ccccc4)CN3)C2)cc1 [Example M00953]
∘∘∘	++ (fold selectivity value of 10 to 100)	5.70 to 6.70	Cn1nnc2cc(CNC(=O)[C@@H]3C[C@@H](Cc4ccc5c(c4)OCO5)CN3C(=O)[C@H]3C[C@@H](c4ccccc4)CN3)ccc21 [Example M05390]
∘∘	++ (fold selectivity value of 10 to 100)	5.70 to 6.70	Nc1cc(CNC(=O)[C@@H]2C[C@@](O)(c3ccc(F)c(F)c3)CN2C(=O)[C@H](N)CCc2ccccc2)ccn1 [Example M05127]
∘∘	+ (fold selectivity values less than 10)	< 5.70	N[C@H](CCc1ccccc1)C(=O)N1CCC[C@H]1C(=O)NCc1ccc2nccn2c1 [Example M05021]
∘∘	++ (fold selectivity value of 10 to 100)	< 5.70	COc1ccc(C[C@@H]2C[C@@H](C(=O)NCc3ccc4c(c3)nnn4C)N(C(=O)[C@H]3C[C@@H](c4ccncc4)CN3)C2)cc1 [Example M05353]

More lines, now with the values behind:

Compound	FXa (human)/FXIIa alpha (human) (FXa)	Thrombin (human)/FXIIa alpha (human) (thrombin)	pKi (FXIIa)
COc1ccc(C[C@@H]2C[C@@H](C(=O)NCc3ccc4c(c3)nnn4C)N(C(=O)[C@H]3CC(c4c(C)noc4C)CN3)C2)cc1 (stereo partly drawn) [Example M05409]	∘∘	+ (fold selectivity values less than 10)	< 5.70
Cn1nnc2cc(CNC(=O)[C@@H]3C[C@@H](Cc4ccccc4C#N)CN3C(=O)[C@H]3C[C@@H](c4ccccc4)CN3)ccc21 [Example M05337]	∘∘	++ (fold selectivity value of 10 to 100)	< 5.70
CC(=O)N[C@H]1C[C@@H](C(=O)NCc2ccnc(N)c2)N(C(=O)[C@H](N)CCc2ccccc2)C1 [Example M05141]	∘	+ (fold selectivity values less than 10)	< 5.70
COc1cncc(CC2C[C@@H](C(=O)NCc3ccc4c(c3)nnn4C)N(C(=O)[C@H](N)CCC(=O)N3CCCC3)C2)c1 (stereo partly drawn) [Example M05304]	∘∘∘	+++ (fold selectivity values greater than 100)	5.70 to 6.70
Cn1cc(-c2cccc(C[C@@H]3C[C@@H](C(=O)NCc4ccc5c(c4)nnn5C)N(C(=O)[C@H](N)CCC(=O)N4CCCC4)C3)c2)cn1 [Example M05330]	∘∘∘	+++ (fold selectivity values greater than 100)	5.70 to 6.70
COc1ccc(C[C@@H]2C[C@@H](C(=O)NCc3ccc4c(c3)nnn4C)N(C(=O)[C@H]3C[C@@H](c4ccccc4)CCN3)C2)cc1 [Example M05374]	∘∘	++ (fold selectivity value of 10 to 100)	< 5.70
COc1ccc(C[C@@H]2C[C@@H](C(=O)NCc3ccc4c(c3)nnn4C)N(C(=O)[C@H](N)CCC(=O)N3CCC[C@@H]3C#N)C2)cc1 [Example M05458]	∘∘∘	+++ (fold selectivity values greater than 100)	> 6.70
COc1ccc(C[C@@H]2C[C@@H](C(=O)NCc3ccc4c(c3)nnn4C)N(C(=O)[C@H](N)CCc3ccccc3)C2)cc1 [Example M05302]	∘∘∘	+++ (fold selectivity values greater than 100)	5.70 to 6.70
COc1ccc(C[C@@H]2C[C@@H](C(=O)NCc3cc4cnccc4[nH]3)N(C(=O)C3NCCc4cc(OC)ccc43)C2)cc1 (single isomer, unassigned) [Example M00961]	∘∘∘	+++ (fold selectivity values greater than 100)	> 6.70
COc1ccc(C[C@@H]2C[C@@H](C(=O)NCc3ccc4c(c3)nnn4C)N(C(=O)[C@H](N)CCC(=O)N3C(C)CCC3C)C2)cc1 (stereo partly drawn) [Example M05399]	∘∘∘	+++ (fold selectivity values greater than 100)	> 6.70
Cn1nccc1-c1cccc(C[C@@H]2C[C@@H](C(=O)NCc3ccc4c(c3)nnn4C)N(C(=O)[C@H](N)CCC(=O)N3CCCC3)C2)c1 [Example M05350, (2S,4R)-1-((R)-2-Amino-5-oxo-5-pyrrolidin-1-yl-pentanoyl)-4-[3-(2-methyl-2H-pyrazol-3-yl)-benzyl]-pyrrolidine-2-carboxylic acid (1-methyl-1H-benzotriazol-5-ylmethyl)-amide]	∘∘∘	+++ (fold selectivity values greater than 100)	5.70 to 6.70
CN(C)[C@H](CCC(=O)N1CCCC1)C(=O)N1C[C@H](Cc2cccnc2)C[C@H]1C(=O)NCc1ccc2c(c1)nnn2C [Example M05222]	∘∘∘	+++ (fold selectivity values greater than 100)	5.70 to 6.70
Cn1nnc2cc(CNC(=O)[C@@H]3CC(Cc4ccc(C(F)(F)F)cc4)CN3C(=O)[C@H](N)CCC(=O)N3CCCC3)ccc21 (stereo partly drawn) [Example M05309]	∘∘∘	+++ (fold selectivity values greater than 100)	5.70 to 6.70
Cn1nnc2cc(CNC(=O)[C@@H]3C[C@H](N)CN3C(=O)[C@H](N)CCc3ccccc3)ccc21 [Example M05143]	∘∘	++ (fold selectivity value of 10 to 100)	< 5.70
Cn1nnc2cc(CNC(=O)[C@@H]3C[C@@H](Cc4ccncc4)CN3C(=O)[C@@H](CCC(=O)N3CCCC3)NS(C)(=O)=O)ccc21 [Example M05268]	∘∘∘	+++ (fold selectivity values greater than 100)	< 5.70
Cn1nnc2cc(CNC(=O)[C@@H]3C[C@@H](Cc4ccccc4F)CN3C(=O)[C@H]3C[C@@H](c4ccccc4)CN3)ccc21 [Example M05332]	∘∘	++ (fold selectivity value of 10 to 100)	< 5.70
Cn1nnc2cc(CNC(=O)[C@@H]3C[C@@H](Cc4ccccc4Cl)CN3C(=O)[C@H]3C[C@@H](c4ccccc4)CN3)ccc21 [Example M05333]	∘	++ (fold selectivity value of 10 to 100)	< 5.70
COc1ccc(C[C@@H]2C[C@@H](C(=O)NCc3nc4cnccc4[nH]3)N(C(=O)[C@H](N)CCC(=O)N3CCCC3)C2)cc1 [Example M00973]	∘∘∘	+++ (fold selectivity values greater than 100)	< 5.70
COc1ccc(C[C@@H]2C[C@@H](C(=O)NCc3ccc4c(c3)nnn4C)N(C(=O)[C@H](N)CCC(=O)N3CC[C@H](F)C3)C2)cc1 [Example M05400]	∘∘∘	+++ (fold selectivity values greater than 100)	> 6.70
COc1ccc(C[C@@H]2C[C@@H](C(=O)NCc3ccc4c(c3)nnn4C)N(C(=O)[C@H]3C[C@@H](c4ccccc4OC(F)(F)F)CN3)C2)cc1 [Example M05388]	∘∘∘	+++ (fold selectivity values greater than 100)	5.70 to 6.70
